According to publication PMC9604400, “Synthesis, Anticancer and Antitubercular Properties of New Chalcones and Their Nitrogen-Containing Five-Membered Heterocyclic Hybrids Bearing Sulfonamide Moiety” (International Journal of Molecular Sciences, 2022):
In brackets after ≈: the same amount, converted by molar mass. Like-named read-outs stand apart in the source and are kept apart here.

Columns and labels:
[1] = Figure 1, literature compound, cited from earlier work
α-glucosidase = conditions: Figure 1, literature compound; cited from earlier work
[2] = tested on: Mycobacterium bovis BCG (ATCC 35734); assay: microbe, parasite or virus in culture; assay type: cell-based; conditions: for MIC: Mycobacterium tuberculosis variant bovis BCG, read-out: MIC Against M. bovis BCG; for MIC Against M. bovis BCG: agar dilution SPOTi
Vero cell line = assay: Cytotoxicity on Vero cell line (MTT); assay type: cell-based, African green monkey; conditions: Vero IC50 / MIC M. tuberculosis H37Rv
[3] = Cytotoxicity on Vero cell line (MTT); assay type: cell-based, African green monkey; conditions: African green monkey, Vero cells (African green monkey kidney, ATCC CCL-81); MTT, 24 h
[4] = tested on: Mycobacterium tuberculosis H37Rv (ATCC 27294); assay: microbe, parasite or virus in culture; assay type: cell-based; conditions: agar dilution SPOTi, read-out: MIC Against M. tuberculosis H37Rv
[5] = tested on: 60 human cancer cell lines; assay: NCI-60 screen (SRB), whole panel; assay type: cell-based; conditions: Homo sapiens; single dose 10 μM, mean over 60 cell lines; over 100% = cell death; read-out: Mean growth inhibition (GI) percentage
M. tuberculosis H37Rv [6] = assay: Checkerboard synergism assay; assay type: cell-based, Mycobacterium tuberculosis; conditions: for MIC: Mycobacterium tuberculosis, H37RV, checkerboard, alone
Protocol: The synergism assays were carried out in 96-well plates with Middlebrook 7H9 medium supplemented with OADC.

M. tuberculosis H37Rv [7] = assay: Growth curves in liquid medium and re-plating (cidal or static); assay type: cell-based, Mycobacterium tuberculosis; conditions: for cidal or static effect: re-plating on solid media without compound, up to 10×MIC
[8] = compound in combination with AMK
[9] = compound in combination with INH
[10] = compound in combination with LVX
[11] = compound in combination with RIF
[12] = 10×MIC, 21 days, compared with day 0
[13] = antibiotic in combination with 20a
[14] = antibiotic in combination with 20f

| Structure (SMILES) | melting point [°C] | MIC [2] [µM] | Selectivity Index (SI) (SI = IC50/MIC) (Vero cell line) | IC50 at 24 h [3] [µM] | MIC ([4]; Mycobacterium tuberculosis) [µM] | inhibition at 10 µM [5] [%] | other results |
| --- | --- | --- | --- | --- | --- | --- | --- |
| Cc1ccc(S(=O)(=O)Nc2ccc(C(=O)/C=C/c3ccc(Br)cc3)cc2)cc1 [Compound 1] |  |  |  |  |  |  | LD50 [1]: 220 µM |
| Cc1ccc(S(=O)(=O)Nc2ccc(C(=O)/C=C/c3ccc(O)c(O)c3)cc2)cc1 [Compound 2] |  |  |  |  |  |  | IC50 (α-glucosidase): 0.4 µM |
| NS(=O)(=O)c1ccc(N2N=C(C(F)(F)F)CC2c2ccc(F)cc2F)cc1 (stereo not shown) [Compound 4] |  |  |  |  |  |  | ED50 ([1]; test not given): 7.4 µM |
| COc1cc(OC)c(S(N)(=O)=O)cc1C(=O)/C=C/c1ccc2c(c1)OCO2 [Compound 17f, (E)-5-(3-(Benzo[d][1,3]dioxol-5-yl)acryloyl)-2,4-dimethoxybenzenesulfonamide] | 257 to 258 | > 25 | 0.07 | 1.7 ± 1.74 | 25 (≈ 9.79 µg/mL) | 10.1 |  |
| COc1ccc(C(=O)C=Cc2ccccc2)cc1S(=O)(=O)NNC(=O)c1ccncc1 [Compound 19a, 5-Cinnamoyl-N’-isonicotinoyl-2-methoxybenzenesulfonohydrazide] | 227 to 229 | > 23 | 0.28 | 6.32 ± 0.82 | 23 (≈ 10.1 µg/mL) | 3.63 |  |
| COc1ccc(/C=C/C(=O)c2ccc(OC)c(S(=O)(=O)NNC(=O)c3ccncc3)c2)cc1 [Compound 19d, (E)-N’-Isonicotinoyl-2-methoxy-5-(3-(4-methoxyphenyl)acryloyl)benzenesulfonohydrazide] | 216 to 217 | > 21 | 0.10 | 2.19 ± 0.68 | 21 (≈ 9.82 µg/mL) |  |  |
| COc1cc(OC)c(S(=O)(=O)NNC(=O)c2ccncc2)cc1C(=O)C=Cc1ccccc1 [Compound 20a, 5-Cinnamoyl-N’-isonicotinoyl-2,4-dimethoxybenzenesulfonohydrazide] | 143 to 145 | 11 (≈ 5.14 µg/mL) |  | 6.05 ± 1.39 | 11 (≈ 5.14 µg/mL) | 19 | MIC Against M. bovis BCG [2]: 11 µM (≈ 5.14 µg/mL); MIC (M. tuberculosis H37Rv [6]): 5 µg/mL; FICI Index (M. tuberculosis H37Rv [6]; [8]): 2.00; MIC Combination (M. tuberculosis H37Rv [6]; [8]): 5 µg/mL; FICI Index (M. tuberculosis H37Rv [6]; [9]): 0.75; MIC Combination (M. tuberculosis H37Rv [6]; [9]): 1.25 µg/mL; FICI Index (M. tuberculosis H37Rv [6]; [10]): 1.25; MIC Combination (M. tuberculosis H37Rv [6]; [10]): 1.25 µg/mL; FICI Index (M. tuberculosis H37Rv [6]; [11]): 1.25; MIC Combination (M. tuberculosis H37Rv [6]; [11]): 5 µg/mL; MIC [4]: 11 µM (≈ 5.14 µg/mL) |
| COc1ccc(/C=C/C(=O)c2cc(S(=O)(=O)NNC(=O)c3ccncc3)c(OC)cc2OC)cc1 [Compound 20d, (E)-N’-Isonicotinoyl-2,4-dimethoxy-5-(3-(4-methoxyphenyl)acryloyl)benzenesulfonohydrazide] | 214 to 217 | > 20 | 0.05 | 1 ± 1.2 | 20 (≈ 9.95 µg/mL) |  |  |
| COc1cc(OC)c(S(=O)(=O)NNC(=O)c2ccncc2)cc1C(=O)/C=C/c1cc(OC)c(OC)c(OC)c1 [Compound 20e, (E)-N’-Isonicotinoyl-2,4-dimethoxy-5-(3-(3,4,5-trimethoxyphenyl)acryloyl)benzenesulfonohydrazide] | 162 to 165 | 9 (≈ 5.02 µg/mL) | 0.03 | 0.26 ± 0.69 | 9 (≈ 5.02 µg/mL) |  | growth of M. tuberculosis H37Rv in liquid medium (optical density) (M. tuberculosis H37Rv [7]; 1×MIC, after 21 days): moderate growth; growth of M. tuberculosis H37Rv in liquid medium (optical density) (M. tuberculosis H37Rv [7]; [12]): modest growth; cidal or static effect (M. tuberculosis H37Rv [7]): bacteriostatic; MIC Against M. bovis BCG [2]: 9.0 µM (≈ 5.02 µg/mL) |
| COc1cc(OC)c(S(=O)(=O)NNC(=O)c2ccncc2)cc1C(=O)/C=C/c1ccc2c(c1)OCO2 [Compound 20f, (E)-5-(3-(Benzo[d][1,3]dioxol-5-yl)acryloyl)-N’-isonicotinoyl-2,4-dimethoxybenzenesulfonohydrazide] | 150 to 152 | 20 (≈ 10.2 µg/mL) | 0.26 | 2.55 ± 0.93 | 9.8 (≈ 5.01 µg/mL) | 4.19 | growth of M. tuberculosis H37Rv in liquid medium (optical density) (M. tuberculosis H37Rv [7]; 1×MIC, after 21 days): moderate growth; growth of M. tuberculosis H37Rv in liquid medium (optical density) (M. tuberculosis H37Rv [7]; [12]): no significant growth; cidal or static effect (M. tuberculosis H37Rv [7]): bacteriostatic; MIC (M. tuberculosis H37Rv [6]): 5 µg/mL; FICI Index (M. tuberculosis H37Rv [6]; [8]): 2.00; MIC Combination (M. tuberculosis H37Rv [6]; [8]): 5 µg/mL; FICI Index (M. tuberculosis H37Rv [6]; [9]): 1.00; MIC Combination (M. tuberculosis H37Rv [6]; [9]): 2.5 µg/mL; FICI Index (M. tuberculosis H37Rv [6]; [10]): 1.00; MIC Combination (M. tuberculosis H37Rv [6]; [10]): 2.5 µg/mL; MIC Combination (M. tuberculosis H37Rv [6]; [11]): 1.25 µg/mL; interaction (from FICI) (M. tuberculosis H37Rv [6]; in combination with rifampicin): synergism |
| COc1ccc(C2=NN(C(N)=S)C(c3ccc(Cl)cc3)C2)cc1S(N)(=O)=O (stereo not shown) [Compound 27a, 5-(4-Chlorophenyl)-3-(4-methoxy-3-sulfamoylphenyl)-4,5-dihydro-1H-pyrazole-1-carbothioamide] | 206 to 208 |  |  |  |  | -0.54 |  |
| COc1cc(OC)c(S(N)(=O)=O)cc1C1=NN(C(N)=S)C(c2ccc(Cl)cc2)C1 (stereo not shown) [Compound 27d, 5-(4-Chlorophenyl)-3-(2,4-dimethoxy-5-sulfamoylphenyl)-4,5-dihydro-1H-pyrazole-1-carbothioamide] | 223 to 225 |  |  |  |  | 2.34 |  |
| NNC(=O)c1ccncc1 [Isoniazid, isoniazid, reference compound] |  | 0.36 (≈ 0.0494 µg/mL) |  |  | 0.36 (≈ 0.0494 µg/mL) |  | MIC (M. tuberculosis H37Rv [6]): 0.012 µg/mL; FICI Index (M. tuberculosis H37Rv [6]; [13]): 0.75; MIC Combination (M. tuberculosis H37Rv [6]; [13]): 0.006 µg/mL; FICI Index (M. tuberculosis H37Rv [6]; [14]): 1.00; MIC Combination (M. tuberculosis H37Rv [6]; [14]): 0.006 µg/mL |
